Like-named read-outs stand apart in the source and are kept apart here.
How the values were obtained:
EBV [1] = conditions: Table 4; cited from earlier work
HLA [2] = conditions: Table 4; cited from earlier work
CTL culture B5 = assay: Identification of specific peptide target, overlapping peptides on autologous PHA blasts; type: cell-based, human; conditions: peptides preincubated with autologous PHA blasts
Protocol: (§1) Limiting dilution cultures were established by distributing PBL from the fourth bleed in 24 replicates at 2×10^4 cells per well in 96-well round-bottomed microtitre plates. Doubling dilutions were made to a final concentration of 1.6×10^2 per well. Approximately 1×10^4 γ-irradiated (8000 rads) autologous type B (EW-Ag-876) LCLs were added to each well as both feeder and stimulator cells to a total volume of 100 μl. Cultures were fed on days 4 and 7 with 50 μl of T cell growth medium and assayed on day 10 or later. The plates were subcultured and maintained in T cell growth medium and stimulated with γ-irradiated EW-Ag-876 LCLs. Initial assays were against type A and type B LCLs and subsequently against peptide-coated PHA-blasts or LCLs. Precursor frequencies were determined by a modification of the method of maximum likelihood estimation (11). Assessment of peptide specific activity. For determination of the antigenic specificity at the peptide level, a set of 20-mer overlapping peptides of EBNA-6B (residues 100-1069 (46)) was prepared using a kit and software distributed by Chiron Mimotopes (Chiron Corporation, Sydney, Australia). Nine-mer and 10-mer overlapping peptides with unblocked C and N termini were manufactured by Chiron Mimotopes. Labelled target cells were preincubated with overlapping peptides in the 96-well trays for 30-60 minutes before adding effectors. […]

B-type epitope CTL = assay: HLA-restriction CTL assay of type B-specific epitope, cell lines with or without specific peptide; type: cell-based, human; conditions: QNGALAINTF specific CTLs, peptide-incubated targets of known HLA specificity
Protocol: as §1

T cell precursors = assay: Limiting dilution cultures, epitope specific precursor frequency; conditions: PBL of donor stimulated by autologous type B cells; assayed 12 weeks later
EBV [3] = assay: EBV type of CTL epitopes of the invention (Table 3); type: cell-based, Epstein-Barr virus
HLA [4] = conditions: Table 3

AVLLHEESM
EBV Type (EBV [1]): Type 1

CLGGLLTMV
EBV Type (EBV [1]): Type 1 & 2
HLA Rest. (HLA [2]): HLA A2

DEPASTEPVHDQLL
EBV Type (EBV [1]): Type 1

DTPLIPLTIF
EBV Type (EBV [1]): Type 1

EENLLDFVRF
EBV Type (EBV [1]): Type 1 & 2

FLRGRAYGL
EBV Type (EBV [1]): Type 1
HLA Rest. (HLA [2]): HLA B8

HLAAQGMAY
EBV Type (EBV [1]): Type 1

KEHVIQNAF
EBV Type (EBV [1]): Type 1

LPGPQVTAVLLHEES
EBV Type (EBV [1]): Type 1

NPTQAPVIQLVHAVY
EBV Type (EBV [1]): Type 1

QNAARTLNTF [reference compound]
Recognition by type B specific culture B5 (CTL culture B5): nonreactive

QNGALAINTF [residues 213-222 of EBNA-6B]
HLA restriction (B-type epitope CTL): B62 (B15)-restricted
Frequency (epitope specific T cell precursors) (T cell precursors): 1/16395
Recognition by type B specific culture B5 (CTL culture B5): minimal epitope
EBV Type (EBV [3]): Type 2

QPRAPIRPI
EBV Type (EBV [1]): Type 1 & 2
HLA Rest. (HLA [2]): HLA B7

QVKWRMTTL
EBV Type (EBV [3]): Type 2

RLRAEAGVK
EBV Type (EBV [1]): Type 1
HLA Rest. (HLA [2]): HLA A3

RPPIFIRRL
EBV Type (EBV [1]): Type 1
HLA Rest. (HLA [2]): HLA B7

RRIYDLIKL
EBV Type (EBV [3]): Type 1

RRRWRRLTV
EBV Type (EBV [1]): Type 1

RYSIFFDY
EBV Type (EBV [1]): Type 1

SVRDRLARL
EBV Type (EBV [1]): Type 1 & 2
HLA Rest. (HLA [2]): HLA A2

TSLYNLRRGTALA
EBV Type (EBV [1]): Type 1 & 2
HLA Rest. (HLA [2]): HLA DR1

TVFYNIPPMPL
EBV Type (EBV [1]): Type 1
HLA Rest. (HLA [2]): HLA DQ2

TYSAGIVQI
EBV Type (EBV [3]): Type 1

VEITPYEPTG
EBV Type (EBV [3]): Type 1

VEITPYEPTW
EBV Type (EBV [3]): Type 1

VEITPYKPTW
EBV Type (EBV [1]): Type 1

VELTPYKPTW
EBV Type (EBV [3]): Type 1

VFSDGRVAC
EBV Type (EBV [3]): Type 1

VPAPAGPIV
EBV Type (EBV [3]): Type 1

VPAPPVGPIV
EBV Type (EBV [3]): Type 1

VSFIEFVGW
EBV Type (EBV [1]): Type 1

VSSDGLVAC
EBV Type (EBV [3]): Type 1

VSSDGQVAC
EBV Type (EBV [3]): Type 1

VSSDGRVAC
EBV Type (EBV [3]): Type 1

VSSDGRVPC
EBV Type (EBV [3]): Type 1

VSSDGRVVC
EBV Type (EBV [3]): Type 1
HLA restriction (HLA [4]): HLA A29

VSSEGRVAC
EBV Type (EBV [3]): Type 1

Source: patent publication US6699477B2, “EBV CTL epitopes” (The Council of the Queensland Institute of Medical Research, priority 1996, dated 2004)
